Experimental data taken from publication PMC8398714, “Synthesis and Evaluation of Biological Activities of Bis(spiropyrazolone)cyclopropanes: A Potential Application against Leishmaniasis” (Molecules, 2021).
Values joined by “and” are separate entries in the source; they are usually repeats but may differ in a detail not shown here. Equal values may be shown once. Read-outs that look alike come from different tables or passages of the source.

Experiments:
HeLa = experiment: MTS cell viability assay on HeLa cells; format: cell-based; details: Homo sapiens, 48 h, Dox 1 µM, mean ± SEM, NA = no activity, read-out: Percentage (%) of inhibition, HeLa
PC-3 = experiment: MTS cell viability assay on PC-3 cells; format: cell-based; details: Homo sapiens, 48 h
Procedure: (§1) Five tumor human cancer cell lines—cerebral astrocytoma (D-384), grade IV prostatic adenocarcinoma (PC-3), mammary adenocarcinoma (MCF-7), human colon carcinoma (RKO) and lung carcinoma (A-549)—along with one immortalized hamster cell line (CHO K-1) were used. The cells PC-3, MCF-7 and RKO were cultured in RPMI-1640, D-384 on DMEM and CHO K-1 on HAM F-12 medium supplemented with 10% fetal bovine serum (FBS, Invitrogen, Karlsruhe, Germany), 1% antibiotic-antimitotic solution (100 units/mL penicillin G, 100 µg/mL streptomycin, and 0.25 µg/mL amphotericin B, Gibco, Grand Island, NY, USA), and 1% L-glutamine (2 mM, Gibco). The cells were incubated at 37 °C in a 5% CO2 atmosphere. The viable cells were counted using the trypan blue exclusion method in a hemocytometer.
(§2) The MTS (5-[3-(carboxymethoxy)phenyl]-3-(4,5-dimethyl-2-thiazolyl)-2-(4-sulfo- phenyl)-2H-tetrazolium inner salt) cell viability assay was used to assess the inhibitory effects of the extracts on the survival of human cancer cell lines. A total of 3–5 × 10^3 cells/well were seeded into 96-well plates and were allowed to adhere for 24 h. […] Each concentration/assay was performed three times. Dimethyl sulfoxide (DMSO) was used as a negative control at a final concentration of 0.1% v/v, and 1 µM Doxorubicin was used as a positive control. The cells were incubated with the treatments for 48 h, after which 20 µL MTS (5 mg/mL, Aqueous One Solution Reagent, Gibco) was added and further incubated for 4 h at 37 °C. The absorbance was measured at 570 nm. The data obtained with cells treated with DMSO were defined to represent 100% viability.

MCF-7 = experiment: MTS cell viability assay on MCF-7 cells; format: cell-based; details: Homo sapiens, MCF7, 48 h, Dox 1 µM, mean ± SEM, NA = no activity, read-out: Percentage (%) of inhibition, MCF-7
Procedure: as §1, §2

[1] = test system: promastigotes of Leishmania mexicana; experiment: Leishmanicidal activity, MTT assay on promastigotes; format: cell-based; details: for IC50: Leishmania mexicana
Procedure: The leishmanicidal activity of all compounds was evaluated by measuring promastigotes’ mitochondrial activity using MTT colorimetric assay as described previously. In this study, promastigotes from Leishmania mexicana were used. The species were confirmed by amplifying and sequencing cytochrome b gene. Promastigotes were cultured at 25 °C in Schneider’s Drosophila Medium (Gibco, Invitrogen, Carlsbad, CA, USA) supplemented with 10% fetal bovine serum (Eurobio, Les Ulis, France). The medium was renewed every third day. Parasite density was determined by counting the cells using a Neubauer chamber.
Into each well of a 96-well plate were dispensed 1 × 10^6 parasites/well. A stock solution of the compounds was prepared in DMSO (Sigma Aldrich, Saint Louis, MO, USA), and serial dilutions were added to the parasite suspension, leading to concentrations ranging from 100 to 0.001 µM, keeping the solvent concentration at 0.5%. The final volume was 200 µL for each well and triplicate conditions were carried out. Amphotericin B (Gibco) treatment (1 µM) untreated parasites and DMSO 0.5% were used as positive and negative controls, respectively. After exposure to the compounds for 48 h in culture medium, 20 µL of a solution of 5 mg/mL MTT dissolved in PBS were added to each well. The plate was incubated at 25 °C for 2 h in darkness. The plate was then centrifuged at 4400 rpm for 10 min and the culture medium was then aspirated; 50 µL of DMSO were added into each well to solubilize the formazan crystals and the plate was shaken for 5 min and then it was measured by recording changes in absorbance at 570 nm using a microplate reader Cytation 5 (BioTek) spectrophotometer. A reference wavelength of 630 nm was used as background subtraction. Optical densities were analyzed because the quantity of formazan is directly proportional to the number of viable parasites. Data were analyzed with the statistical software GraphPad Prism 7.02 (GraphPad Software, Corp.).

[2] = DPPH radical scavenging assay; details: 30 min, 515 nm
Procedure: The stock solution of the compounds was prepared by dissolving 4 in dimethyl sulfoxide (DMSO) to a concentration of 4 mg/mL. The solution was diluted with methanol until a concentration of 400 µg/mL was obtained and then used immediately.
The experimental procedure was adapted from the literature. Briefly, 100 µL of a 0.2 mM methanol solution of DPPH (2, 2-diphenyl-1-picrylhydrazyl) radical were added to 100 µL of methanolic solutions of 4 prepared as serial two-fold dilutions from the stock solution in 96-well microfilter plates. Standards and edaravone were also prepared in the same concentrations. The mixture was incubated in dark at room temperature for 30 min and the absorbance was read at 515 nm on a Cytation 5 (BioTek) spectrophotometer.
The % DPPH scavenging activity was then calculated by using the following formula:(1) % DPPH scavenging = 100 × [(Asample+DPPH−Asample blank)/(ADPPH−Asolvent)]
The antioxidant activity of the compound was expressed as IC50, which is defined as the concentration that could scavenge 50% of the DPPH free radical. The IC50 values were calculated in GraphPad Prism 7.02 (GraphPad Software, Corp.) The results are given as a mean ± standard deviation (SD) of experiments done in triplicate.

With `CC1=NN(c2ccccc2)C(=O)[C@@]12C(c1ccc([N+](=O)[O-])cc1)[C@@]21C(=O)N(c2ccccc2)N=C1C` (relative stereo) [4k, (5R*,6R*)-11-(4-Nitrophenyl)-4,10-dimethyl-2,8-diphenyl-2,3,8,9-tetraazadispiro[4.0.4.1]undeca-3,9-diene-1,7-dione] as the compound, how does the inhibition at 100 µM (HeLa) read?
Its inhibition at 100 µM is 47.2 ± 1.36%.

And the inhibition at 100 µM (PC-3; 100 µM, Dox 1 µM, mean ± SEM, NA = no activity, read-out: Percentage (%) of inhibition, PC-3)?
Its inhibition at 100 µM is 46.7 ± 3.78%.

And the IC50 (PC-3; 15-150 µM, mean ± SEM of triplicates)?
Its IC50 is 83.18 ± 0.45 µM.

And the melting point?
The melting point was 145.3 to 152.9 °C (dec.).

And the inhibition at 100 µM (MCF-7)?
The inhibition at 100 µM was 43 ± 3.46%.

What about the “SI (Selectivity Index) = Citotoxic activity/Leishmanicidal activity” value ([1]; CC50 RAW / IC50 L. mexicana) of the same compound?
The value was 11.0.

What about the IC50 ([1]; read-out: IC50 original values, x.1 (Mean)) of the same compound?
Its IC50 is 0.295 µM.

And the IC50 ([1]; L. mexicana promastigotes, 48 h, MTT, read-out: Leishmanicidal Activity IC50)?
Its IC50 is 0.3 ± 0.09 µM.

And the IC50 [2]?
The IC50 was 234 µM and < 300 µM.
